# Laboratory results reported in patent US11111238B2, “Coumarin derivatives, processes for their preparation and uses thereof for the treatment of cancer” (Lead Discovery Center GmbH, priority 2017, dated 2021).
# Key:
# [1] = system: mitochondrial transcription (7S RNA) in HeLa cells; test: Quantitative real time-PCR assay of inhibition of mitochondrial transcription (cellular qPCR assay IMT); type: cell-based; details: Homo sapiens, 4 h compound incubation, qRT-PCR according to Example 5, activity class
# Procedure: Quantitative real-time PCR (qRT-PCR), based on the TagMan™ (Thermo Fisher Scientific, Waltham Mass.) technology, was carried out essentially as described in (Heid et al., 1996). HeLa cells were plated one day before compound treatment in RPMI medium supplemented with 10% Fetal Calf Serum and 2 mM L-glutamine. Cells were incubated with dilution series of compounds or vehicle (DMSO) for 4 h, prior to harvest and extraction of the RNA using the RNeasy Mini Kit (Qiagen, Hilden D), according to the manufacturer's instructions. RNA concentrations were measured spectroscopically, using a NanoDrop-2000 (Thermo Fisher Scientific, Waltham Mass.) and normalized prior to cDNA synthesis, using a ‘High-Capacity cDNA Reverse Transcription Kit’ (Thermo Fisher Scientific, Waltham Mass.). qRT-PCR was carried out using the ‘TaqMan Fast Advance Master Mix’ (Thermo Fisher Scientific, Waltham Mass.) on a 7500 Fast Real-Time PCR machine (Applied Biosystems, Foster City Calif.)
# For these measurements, three genes were used to compare the effect of the scrutinized compounds in relation to their concentration. The POLRMT-gene was used to detect potential influences on nuclear transcription. Mitochondrial transcription in vivo was monitored by measurements 7S RNA. The TBP (TATA-box binding protein) gene was employed as the control (housekeeping gene) during qRT-PCR. The short-lived mitochondrial 7S RNA, which is not post-transcriptionally stabilized, allowed us to monitor rapid changes in mitochondrial transcription activity following compound addition. Biological triplicates were analyzed using the comparative CT Method (ΔΔCt) method (Bubner and Baldwin, 2004) and reported as Rq % values (Rq=Relative quantification=2-ΔΔCt).
# [2] = biological target: mitochondrial RNA-polymerase (POLRMT) (Mus musculus, UniProt Q8BKF1); test: Homogeneous TR-FRET assay for mitochondrial transcription activity; type: biochemical; details: homogeneous TR-FRET assay according to Example 4; activity class
# Outline: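 Mouse POLRMT, TFAM and TFB2M with linearized pUC-LSP template in 10 mM Tris-HCl pH 7.5, 10 mM MgCl2, 40 mM NaCl; compounds at 10 μM or serial dilution, 10 min RT preincubation. Started with 500 μM each […], 2 h RT; 407 bp RNA product detected by hybridized Eu-cryptate/ATTO647N probe TR-FRET (ex 340, em 665 nm).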
# Sequence of mitochondrial RNA-polymerase (POLRMT) (Q8BKF1 42-1207): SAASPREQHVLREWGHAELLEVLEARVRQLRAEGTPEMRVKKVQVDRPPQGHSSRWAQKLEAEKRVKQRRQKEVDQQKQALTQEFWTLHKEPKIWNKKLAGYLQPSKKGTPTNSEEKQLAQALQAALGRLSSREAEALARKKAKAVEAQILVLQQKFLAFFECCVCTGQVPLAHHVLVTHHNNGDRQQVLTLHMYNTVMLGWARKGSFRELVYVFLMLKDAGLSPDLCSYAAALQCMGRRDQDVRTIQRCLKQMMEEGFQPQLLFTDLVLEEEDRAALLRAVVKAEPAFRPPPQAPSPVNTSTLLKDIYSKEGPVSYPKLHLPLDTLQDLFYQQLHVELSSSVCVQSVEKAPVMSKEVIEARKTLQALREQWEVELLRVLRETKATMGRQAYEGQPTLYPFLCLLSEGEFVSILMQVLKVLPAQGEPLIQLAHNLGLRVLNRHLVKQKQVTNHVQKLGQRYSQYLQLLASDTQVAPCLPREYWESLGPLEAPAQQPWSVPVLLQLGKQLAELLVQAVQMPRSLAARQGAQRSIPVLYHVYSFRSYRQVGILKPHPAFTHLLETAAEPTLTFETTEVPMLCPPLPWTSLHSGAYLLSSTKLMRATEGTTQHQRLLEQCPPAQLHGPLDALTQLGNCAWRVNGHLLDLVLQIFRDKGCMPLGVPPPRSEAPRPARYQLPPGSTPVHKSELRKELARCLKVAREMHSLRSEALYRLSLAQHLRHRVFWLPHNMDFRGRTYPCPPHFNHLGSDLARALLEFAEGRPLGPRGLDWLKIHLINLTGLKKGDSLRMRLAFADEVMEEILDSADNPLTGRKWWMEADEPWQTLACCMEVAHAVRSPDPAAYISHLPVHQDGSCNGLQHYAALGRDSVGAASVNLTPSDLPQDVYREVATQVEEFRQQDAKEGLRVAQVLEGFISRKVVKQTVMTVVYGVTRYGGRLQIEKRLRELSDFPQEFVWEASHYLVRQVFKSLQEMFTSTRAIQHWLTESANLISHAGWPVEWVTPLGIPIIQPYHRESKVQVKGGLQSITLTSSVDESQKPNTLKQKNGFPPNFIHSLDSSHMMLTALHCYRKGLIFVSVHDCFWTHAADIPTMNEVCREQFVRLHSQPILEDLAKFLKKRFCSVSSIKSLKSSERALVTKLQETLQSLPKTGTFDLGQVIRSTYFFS
IC50 [1],IC50 [2],SMILES
500 to 5000 nM,100 to 1000 nM,"C[C@@H](Oc1ccc2c(-c3ccc(F)cc3Cl)cc(=O)oc2c1)C(=O)N1CCN(C)C(C(=O)O)C1 (mixture of isomers) [Compound 161, 1-methyl-4-[rac-(2R)-2-[4-(2-chloro-4-fluoro-phenyl)-2-oxo-chromen-7-yl]oxypropanoyl]piperazine-2-carboxylic acid]"
50 to 500 nM,20 to 100 nM,"CC(Oc1ccc2c(-c3ccccc3Cl)cc(=O)oc2n1)C(=O)N1CCC[C@H](C(=O)O)C1 (mixture of isomers) [Compound 170, rac-(3S)-1-[2-[4-(2-chlorophenyl)-2-oxo-pyrano[2,3-b]pyridin-7-yl]oxypropanoyl]piperidine-3-carboxylic acid]"
< 10 nM,< 20 nM,"Cc1ccccc1-c1cc(=O)oc2cc(OC(C)C(=O)N3CCCCC3)ccc12 (stereo not shown) [Compound 1, 7-[1-methyl-2-oxo-2-(1-piperidyl)ethoxy]-4-(o-tolyl)chromen-2-one]"
< 10 nM,< 20 nM,"CC(Oc1ccc2c(-c3ccccc3Cl)cc(=O)oc2c1)C(=O)N1CCCCC1 (stereo not shown) [Compound 2, 4-(2-chlorophenyl)-7-[1-methyl-2-oxo-2-(1-piperidyl)ethoxy]chromen-2-one]"
< 10 nM,< 20 nM,"Cc1ccccc1-c1cc(=O)oc2cc(OC(C)C(=O)N3CCCC(C(=O)O)C3)ccc12 (stereo not shown) [Compound 8, 1-[2-[4-(o-tolyl)-2-oxo-chromen-7-yl]oxypropanoyl]piperidine-3-carboxylic acid]"
< 10 nM,< 20 nM,"CC(Oc1ccc2c(-c3ccccc3Cl)cc(=O)oc2c1)C(=O)N1CCCC(C(=O)O)C1 (stereo not shown) [Compound 9, 1-[2-[4-(2-chlorophenyl)-2-oxo-chromen-7-yl]oxypropanoyl]piperidine-3-carboxylic acid]"
< 10 nM,< 20 nM,"Cc1ccccc1-c1cc(=O)oc2cc(OC(C)C(=O)N3CCCC(S(N)(=O)=O)C3)ccc12 (stereo not shown) [Compound 12, 1-[2-[4-(o-tolyl)-2-oxo-chromen-7-yl]oxypropanoyl]piperidine-3-sulfonamide]"
< 10 nM,< 20 nM,"CNC(=O)C1CCCN(C(=O)C(C)Oc2ccc3c(-c4ccccc4Cl)cc(=O)oc3c2)C1 (stereo not shown) [Compound 15, 1-[2-[4-(2-chlorophenyl)-2-oxo-chromen-7-yl]oxypropanoyl]-N-methyl-piperidine-3-carboxamide]"
< 10 nM,< 20 nM,"CNS(=O)(=O)C1CCCN(C(=O)C(C)Oc2ccc3c(-c4ccccc4C)cc(=O)oc3c2)C1 (stereo not shown) [Compound 18, N-methyl-1-[2-[4-(o-tolyl)-2-oxo-chromen-7-yl]oxypropanoyl]piperidine-3-sulfonamide]"
< 10 nM,< 20 nM,"CNC(=O)C1CCCN(C(=O)C(C)Oc2ccc3c(-c4ccccc4C)cc(=O)oc3c2)C1 (stereo not shown) [Compound 21, N-methyl-1-[2-[4-(o-tolyl)-2-oxo-chromen-7-yl]oxypropanoyl]piperidine-3-carboxamide]"
< 10 nM,< 20 nM,"C[C@@H](Oc1ccc2c(-c3ccccc3Cl)cc(=O)oc2c1)C(=O)N1CCC[C@H](C(=O)O)C1 [Compound 23, (3S)-1-[(2R)-2-[4-(2-chlorophenyl)-2-oxo-chromen-7-yl]oxypropanoyl]piperidine-3-carboxylic acid]"
< 10 nM,< 20 nM,"CC(Oc1ccc2c(-c3ccccc3Cl)cc(=O)oc2c1)C(=O)N1CCCC(S(N)(=O)=O)C1 (stereo not shown) [Compound 24, 1-[2-[4-(2-chlorophenyl)-2-oxo-chromen-7-yl]oxypropanoyl]piperidine-3-sulfonamide]"
< 10 nM,< 20 nM,"Cc1ccccc1-c1cc(=O)oc2cc(OC(C)C(=O)NC3CC3)ccc12 (stereo not shown) [Compound 25, N-cyclopropyl-2-[4-(o-tolyl)-2-oxo-chromen-7-yl]oxy-propanamide]"
< 10 nM,< 20 nM,"CC(Oc1ccc2c(-c3ccccc3Cl)cc(=O)oc2c1)C(=O)NC1CC1 (stereo not shown) [Compound 26, 2-[4-(2-chlorophenyl)-2-oxo-chromen-7-yl]oxy-N-cyclopropyl-propanamide]"
< 10 nM,< 20 nM,"Cc1ccccc1-c1cc(=O)oc2cc(O[C@H](C)C(=O)N3CCC[C@H](C(=O)O)C3)ccc12 [Compound 27, (3S)-1-[(2R)-2-[4-(o-tolyl)-2-oxo-chromen-7-yl]oxypropanoyl]piperidine-3-carboxylic acid]"
< 10 nM,< 20 nM,"CC(Oc1ccc2c(-c3ccccc3Cl)cc(=O)oc2c1)C(=O)N1CCC[C@H](C(=O)O)C1 (stereo partly drawn) [Compound 33, (3S)-1-[2-[4-(2-chlorophenyl)-2-oxo-chromen-7-yl]oxypropanoyl]piperidine-3-carboxylic acid]"
< 10 nM,< 20 nM,"Cc1ccccc1-c1cc(=O)oc2cc(O[C@H](C)C(=O)NC(C)C)ccc12 [Compound 36, (2R)-N-isopropyl-2-[4-(o-tolyl)-2-oxo-chromen-7-yl]oxy-propanamide]"
< 10 nM,,"C[C@@H](Oc1ccc2c(-c3ccc(F)cc3Cl)cc(=O)oc2c1)C(=O)N1CCC[C@H](C(=O)OCCN2CCOCC2)C1 [Compound 119, 2-morpholinoethyl (3S)-1-[(2R)-2-[4-(2-chloro-4-fluoro-phenyl)-2-oxo-chromen-7-yl]oxypropanoyl]piperidine-3-carboxylate]"
,< 20 nM,"C[C@@H](Oc1ccc2c(-c3ccc(F)cc3Cl)cc(=O)oc2c1)C(=O)Nc1cccc(C(=O)O)n1 [Compound 151, 6-[[(2R)-2-[4-(2-chloro-4-fluoro-phenyl)-2-oxo-chromen-7-yl]oxypropanoyl]amino]pyridine-2-carboxylic acid]"
,20 to 100 nM,"COC(=O)c1ccc(NC(=O)[C@@H](C)Oc2ccc3c(-c4ccc(F)cc4Cl)cc(=O)oc3c2)cn1 [Compound 153, methyl 5-[[(2R)-2-[4-(2-chloro-4-fluoro-phenyl)-2-oxo-chromen-7-yl]oxypropanoyl]amino]pyridine-2-carboxylate]"
,< 20 nM,"C[C@@H](Oc1ccc2c(-c3ccc(F)cc3Cl)cc(=O)oc2c1)C(=O)Nc1ccc(C(=O)O)nc1 [Compound 154, 5-[[(2R)-2-[4-(2-chloro-4-fluoro-phenyl)-2-oxo-chromen-7-yl]oxypropanoyl]amino]pyridine-2-carboxylic acid]"
,20 to 100 nM,"COC(=O)c1cc(NC(=O)[C@@H](C)Oc2ccc3c(-c4ccc(F)cc4Cl)cc(=O)oc3c2)ccn1 [Compound 156, methyl 4-[[(2R)-2-[4-(2-chloro-4-fluoro-phenyl)-2-oxo-chromen-7-yl]oxypropanoyl]amino]pyridine-2-carboxylate]"
,20 to 100 nM,"COC(=O)[C@H]1CCN(C(=O)[C@@H](C)Oc2ccc3c(-c4ccc(F)cc4Cl)cc(=O)oc3c2)C1 [Compound 157, methyl (3S)-1-[(2R)-2-[4-(2-chloro-4-fluoro-phenyl)-2-oxo-chromen-7-yl]oxypropanoyl]pyrrolidine-3-carboxylate]"
,< 20 nM,"Cc1cc(F)ccc1-c1cc(=O)oc2cc(O[C@H](C)C(=O)N3CCC[C@H](C(=O)O)C3)ccc12 [Compound 158, (3S)-1-[(2R)-2-[4-(4-fluoro-2-methyl-phenyl)-2-oxo-chromen-7-yl]oxypropanoyl]piperidine-3-carboxylic acid]"
,< 20 nM,"C[C@@H](Oc1ccc2c(-c3ccc(F)cc3Cl)cc(=O)oc2c1)C(=O)Nc1ccnc(C(=O)O)c1 [Compound 160, 4-[[(2R)-2-[4-(2-chloro-4-fluoro-phenyl)-2-oxo-chromen-7-yl]oxypropanoyl]amino]pyridine-2-carboxylic acid]"
,20 to 100 nM,"C[C@@H](Oc1ccc2c(-c3ccccc3C#N)cc(=O)oc2c1)C(=O)N1CCC[C@H](C(=O)O)C1 [Compound 162, (3S)-1-[(2R)-2-[4-(2-cyanophenyl)-2-oxo-chromen-7-yl]oxypropanoyl]piperidine-3-carboxylic acid]"
,100 to 1000 nM,"C[C@@H](Oc1ccc2c(-c3c(Cl)cccc3Cl)cc(=O)oc2c1)C(=O)N1CCC[C@H](C(=O)O)C1 [Compound 163, (3S)-1-[(2R)-2-[4-(2,6-dichlorophenyl)-2-oxo-chromen-7-yl]oxypropanoyl]piperidine-3-carboxylic acid]"
,100 to 1000 nM,"CCOC(=O)C(C)Oc1ccc2c(-c3ccccc3F)cc(=O)oc2c1 (stereo not shown) [Compound 175, ethyl 2-[4-(2-fluorophenyl)-2-oxo-chromen-7-yl]oxypropanoate]"
,1000 to 5000 nM,"CCOC(=O)C(C)Oc1ccc2c(-c3c(F)cccc3F)cc(=O)oc2c1 (stereo not shown) [Compound 176, ethyl 2-[4-(2,6-difluorophenyl)-2-oxo-chromen-7-yl]oxypropanoate]"
